In BindingDB's records for doi:10.1021/jm050267e (Johnson & Johnson Pharmaceutical, 2005):

What was measured:
Assay in all cases: Kinase Inhibition Assay
[1] = biological target: Cyclin-A2/Cyclin-dependent kinase 2 (Homo sapiens, UniProt P24941)
Description: (§1) The enzyme was assayed with a biotinylated peptide substrate and test compounds in the presence of 10 uM ATP/[gamma-33P]ATP in a streptavidin coated FlashPlate (Perkin-Elmer, Boston, MA). Inhibition of the enzymatic activity due to the compound was measured by observing a reduced amount of 33P-gamma-ATP incorporated into the immobilized peptide relative to untreated controls. Linear regression analysis of the percent of inhibition by the test compound was used to calculate IC50 values.

[2] = biological target: Cyclin-dependent kinase 4/G1/S-specific cyclin-D1 (Mus musculus, UniProt P30285)
Cyclin-dependent kinase 4/G1/S-specific cyclin-D1, sequence (P25322 whole entry): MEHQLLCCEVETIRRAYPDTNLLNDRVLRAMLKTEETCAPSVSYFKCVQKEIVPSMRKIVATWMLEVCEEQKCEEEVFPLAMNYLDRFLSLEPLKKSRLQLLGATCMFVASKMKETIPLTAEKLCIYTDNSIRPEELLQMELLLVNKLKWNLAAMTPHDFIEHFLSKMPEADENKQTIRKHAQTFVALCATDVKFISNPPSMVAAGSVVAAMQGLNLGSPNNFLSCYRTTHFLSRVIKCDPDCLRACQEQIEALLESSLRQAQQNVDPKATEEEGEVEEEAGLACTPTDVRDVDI
Cyclin-dependent kinase 4/G1/S-specific cyclin-D1, sequence (P30285 whole entry): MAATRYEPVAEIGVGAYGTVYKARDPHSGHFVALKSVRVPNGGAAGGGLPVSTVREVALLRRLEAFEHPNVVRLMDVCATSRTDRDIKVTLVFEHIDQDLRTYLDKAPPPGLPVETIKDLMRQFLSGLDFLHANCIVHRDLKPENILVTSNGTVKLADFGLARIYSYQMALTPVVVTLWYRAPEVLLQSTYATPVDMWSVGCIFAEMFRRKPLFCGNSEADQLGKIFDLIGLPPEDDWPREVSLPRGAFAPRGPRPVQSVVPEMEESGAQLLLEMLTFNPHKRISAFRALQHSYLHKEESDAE
Description: as §1

[3] = biological target: Cyclin-dependent kinase/G2/mitotic-specific cyclin- 1 (Homo sapiens, UniProt P06493); settings: pH 8; 30 °C
Cyclin-dependent kinase/G2/mitotic-specific cyclin- 1, sequence (P06493 whole entry): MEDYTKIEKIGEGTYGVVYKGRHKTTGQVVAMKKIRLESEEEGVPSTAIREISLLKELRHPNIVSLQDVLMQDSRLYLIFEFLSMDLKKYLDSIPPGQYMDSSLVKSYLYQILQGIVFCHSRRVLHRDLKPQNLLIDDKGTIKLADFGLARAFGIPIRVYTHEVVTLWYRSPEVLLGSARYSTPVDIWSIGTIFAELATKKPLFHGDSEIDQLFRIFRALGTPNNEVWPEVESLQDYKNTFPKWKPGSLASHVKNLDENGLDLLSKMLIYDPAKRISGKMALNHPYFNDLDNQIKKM
Cyclin-dependent kinase/G2/mitotic-specific cyclin- 1, sequence (P14635 whole entry, further chain): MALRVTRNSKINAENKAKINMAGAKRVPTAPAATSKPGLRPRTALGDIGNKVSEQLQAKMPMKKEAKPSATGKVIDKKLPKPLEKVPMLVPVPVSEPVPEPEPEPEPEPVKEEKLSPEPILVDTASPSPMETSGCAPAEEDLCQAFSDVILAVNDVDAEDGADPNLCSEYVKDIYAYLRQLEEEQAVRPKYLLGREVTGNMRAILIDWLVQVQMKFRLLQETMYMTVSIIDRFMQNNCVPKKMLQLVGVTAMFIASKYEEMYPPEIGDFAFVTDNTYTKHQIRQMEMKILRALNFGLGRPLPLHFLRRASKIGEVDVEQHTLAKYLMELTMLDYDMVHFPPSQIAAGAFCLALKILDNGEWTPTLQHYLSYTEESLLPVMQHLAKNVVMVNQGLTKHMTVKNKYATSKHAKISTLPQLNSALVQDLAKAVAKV
Description: as §1

[4] = biological target: Vascular endothelial growth factor receptor 2 (Rattus norvegicus, UniProt O08775)
Vascular endothelial growth factor receptor 2, sequence (O08775 whole entry): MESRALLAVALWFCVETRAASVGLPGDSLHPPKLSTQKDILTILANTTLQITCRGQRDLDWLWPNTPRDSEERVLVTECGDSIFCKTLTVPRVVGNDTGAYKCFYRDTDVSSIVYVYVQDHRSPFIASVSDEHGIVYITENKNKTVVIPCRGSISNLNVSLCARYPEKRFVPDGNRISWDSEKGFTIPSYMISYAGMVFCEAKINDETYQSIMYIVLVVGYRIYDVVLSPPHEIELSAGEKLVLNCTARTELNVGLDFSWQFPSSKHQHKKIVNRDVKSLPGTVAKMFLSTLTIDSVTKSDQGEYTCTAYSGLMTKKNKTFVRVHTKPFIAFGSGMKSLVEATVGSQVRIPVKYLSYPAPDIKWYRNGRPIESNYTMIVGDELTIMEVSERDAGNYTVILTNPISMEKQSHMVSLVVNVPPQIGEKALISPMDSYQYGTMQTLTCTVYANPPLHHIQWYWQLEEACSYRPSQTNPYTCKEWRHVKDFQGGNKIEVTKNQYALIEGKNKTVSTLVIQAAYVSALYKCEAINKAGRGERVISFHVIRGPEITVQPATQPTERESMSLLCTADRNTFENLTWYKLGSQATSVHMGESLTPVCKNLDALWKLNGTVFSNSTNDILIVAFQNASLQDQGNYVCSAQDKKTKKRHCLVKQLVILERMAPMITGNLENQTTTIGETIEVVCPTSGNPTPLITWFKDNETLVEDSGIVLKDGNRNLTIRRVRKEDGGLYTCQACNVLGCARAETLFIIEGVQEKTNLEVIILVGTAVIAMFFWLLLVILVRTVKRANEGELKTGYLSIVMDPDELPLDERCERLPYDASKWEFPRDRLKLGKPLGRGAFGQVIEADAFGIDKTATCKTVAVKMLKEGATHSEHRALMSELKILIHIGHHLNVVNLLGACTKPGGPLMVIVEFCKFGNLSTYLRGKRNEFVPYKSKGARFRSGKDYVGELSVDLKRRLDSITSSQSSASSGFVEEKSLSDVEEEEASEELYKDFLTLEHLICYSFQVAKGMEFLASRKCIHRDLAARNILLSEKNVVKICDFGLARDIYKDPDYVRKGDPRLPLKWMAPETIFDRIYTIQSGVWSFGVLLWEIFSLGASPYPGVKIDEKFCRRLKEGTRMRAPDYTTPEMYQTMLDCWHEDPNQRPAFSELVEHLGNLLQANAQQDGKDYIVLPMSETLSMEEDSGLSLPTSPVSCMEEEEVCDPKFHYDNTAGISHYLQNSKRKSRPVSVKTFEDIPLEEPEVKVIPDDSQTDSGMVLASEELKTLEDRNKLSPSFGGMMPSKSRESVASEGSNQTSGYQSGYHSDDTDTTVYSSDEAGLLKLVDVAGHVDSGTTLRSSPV
Description: as §1

Structure (SMILES)	IC50 [1] [nM]	IC50 [2] [nM]	IC50 [3] [nM]	IC50 [4] [nM]
Cc1ccc(F)c(C(=O)n2nc(Nc3ccc(S(N)(=O)=O)cc3)nc2N)c1F [4-({5-amino-1-[(2,6-difluoro-3-methylphenyl)carbonyl]-1H-1,2,4-triazol-3-yl}amino)benzene-1-sulfonamide]	0.3	190	8	510
Nc1nc(Nc2ccc(S(N)(=O)=O)cc2)nn1C(=O)c1c(F)ccc(F)c1F [4-[[5-Amino-1-(2,3,6-trifluorobenzoyl)-1H-1,2,4-triazol-3-yl]amino]-benzenesulfonamide]			3.2	
